Blank lines part the entries; values can stand above or below the sequence they belong to. No end group written: not given here.
Tests used:
AN3CA cells = experiment: In vivo metastasis assay (retro-orbital injection) in NOD/SCID mice; conditions: 6 weeks after injection
Method: All experimental procedures involving animals were conducted in accordance with the institutional guidelines set forth by the Children's Hospital Boston (CHB animal protocol number 11-09-2022). Eight to ten-week-old NOD/SCID mice were housed in a specific pathogen-free facility. To generate a xenograft mouse model, NOD/SCID mice were injected with 2×10^6 cells into right flanks. Cells were resuspended in 0.1 ml of PBS and then mix with 0.1 ml of matrigel. Two cell lines were prepared for xenografts: AN3CA and HEC-1A. Tumor sizes were measured weekly. As for metastasis mouse model, 1×10^6 AN3CA cells—were injected via the retro-orbital sinus as described previously (2). […] Cell proliferation in tumor was determined by staining histological sections with monoclonal antibody against Ki-67 (BD, Cat. No. 556003), and apoptosis was evaluated by terminal uridine deoxynucleotidyl transferase dUTP nick end labeling (TUNEL) assay (in situ cell death detection kit, Promega, Cat. No. G3250) according to manufacturer's protocol.
Next assessed was whether loss of SALL4 could affect tumor invasiveness. […] The invasive potential of these three cell lines in vitro: AN3CA, HEC-1A and Ishikawa cells was compared, and a strong association between SALL4 expression and invasive capacity was detected, with Ishikawa showing the least migration/invasion ability (data not shown). […]

SALL4A and SALL4B = experiment: SALL4 knock-down in endometrial cancer cells (Western blot, qRT-PCR); type: cell-based, human; conditions: AN3CA and HEC-1A
Text: In brief, the expression plasmids for human SALL4A and SALL4B were constructed using FUW-Luc-mCh-puro vector (FIG. 43A). SALL4A or SALL4B mutant preserving the same amino acid sequence, but containing triple-point mutations within the SALL4shRNA1 target nucleotide sequence, which renders the transgenes resistant to SALL4 shRNA targeting, were generated using QuikChange site-directed mutagenesis kit (Stratagene) and confirmed by sequencing. Short hairpin RNAs set for human SALL4 in pLKO.1-puro vector were purchased from Open Biosystems (RHS3979) and knockdown efficiency was further evaluated. Two of them, designated as SALL4shRNA1 and SALL4shRNA 2, were selected for subsequent experiments. The sequences for SALL4 shRNAs and Scramble shRNA are listed as following: SALL4shRNA1: […] (SEQ ID NO: 3); SALL4shRNA 2: CTATTTAGCCAAAGGCAAA (SEQ ID NO: 2); Scr-shRNA: […] (SEQ ID NO: 14)
To assess the biological functional role of SALL4 in endometrial cancer, first evaluated was SALL4 expression in a panel of six endometrial cancer cell lines using quantitative real-time PCR to select for appropriate models for our functional studies (FIG. 40). […]

KG1a = experiment: Cellular uptake of FITC-labeled peptide; type: cell-based; conditions: no carrier
Method: (§1) Cells were grown typically in 6 well plates (35 mm dish) to 50-70% confluence. Usually the transfect ion efficiency is somehow cell type specific. 2 mM peptide was diluted 4 times in PBS (2 ul+6 ul) (For FITC peptidedo not dilute the 2 mM stock). For each transfection reaction tube with 100 ul PBS+1 ul diluted peptide was set up. Chariot reagent was diluted 1:10 in ddH2O and for each transfection a 94 ul H2O tube+6 ul diluted Chariot was prepared (No master mix for more than 4 transfections). The 2 tubes were carefully mixed by pipetting up and down and incubated 30 min. at room temperature. Medium was aspirated from the dish (well) and cells were overlay with the mix. 400 ul serum free medium was added and cells were incubated further for 1 h 37 C (cell incubator). 500 ul complete medium (with 10% serum) was finally added. If cells are not very sensitive to serum starvation (cancer cell lines) 5% serum could be used.
(§2) Fluorescent and Confocal microscopy was performed on cells treated with FITC labeled peptides with or without of transfection reagent depending on the cell type. Cells were mounted on cover slips using mounting media with DAPI (Invitrogen) and in some cases cytoskeleton dye (Invitrogen).
(§3) In order to evaluate their cellular uptake and localization, the N terminus of these peptides was labeled with fluorescein isothiocyanate (FITC). Despite the net positive charge of these peptides, their uptake by the cells is cell-type specific. Some cell lines such as HL-60 (an AML cell line) allowed the peptide to enter the cells without any modification or carrier, and some cell lines were not penetrable at all. In order to achieve a similar level of peptide delivery in most cell types, a Chariot Transfection Reagent (Active Motif) was used as a peptide carrier, as directed from the manufacturer. All cell types used in the study described herein were subjected to individual evaluation of the percentage of the cells in which the peptide was delivered as well as the duration of time during which they sustained the labeled peptide in the cells. After Chariot treatment, confocal microscopy studies confirmed uptake of these peptides throughout the cell, including nuclei (as evidenced by DAPI overlay, FIG. 1B).

AML3 = experiment: Cellular uptake of FITC-labeled peptide; type: cell-based; conditions: AML3, no carrier
Method: as §1, §2, §3

MCF7 = experiment: Cellular uptake of FITC-labeled peptide; type: cell-based; conditions: MCF7, with Chariot
Method: as §1, §2, §3

CD34+ = experiment: Cellular uptake of FITC-labeled peptide; type: cell-based; conditions: with Chariot
Method: as §1, §2, §3

HL60 = experiment: Cellular uptake of FITC-labeled peptide; type: cell-based, human; conditions: HL60, no carrier
Method: as §1, §2, §3

HuH-7 = experiment: Cellular uptake of FITC-labeled peptide; type: cell-based, human; conditions: HuH-7, with Chariot
Method: as §1, §2, §3

SNU387 = experiment: Cellular uptake of FITC-labeled peptide; type: cell-based, human; conditions: SNU387, with Chariot
Method: as §1, §2, §3

AML = experiment: Cellular uptake of FITC-labeled peptide; type: cell-based, human; conditions: with Chariot
Method: as §1, §2, §3

SNU-398 = experiment: Cellular uptake of FITC-labeled peptide; type: cell-based, human; conditions: SNU-398, with Chariot
Method: as §1, §2, §3
Next tested was the cellular uptake and localization of these peptides in various types of cells using FITC-labeled wild type or scrambled peptides. Despite the net positive charge of these peptides, their penetration into cells is cell type-specific. Some cell lines, such as HL-60 (an AML cell line), allowed peptide entry without any modification or facilitator, while others such as SNU-398 were not penetrable at all. […] The overall success rate of peptide uptake by the cells was above 95% with Pep-1, as evaluated by flow cytometry (FIG. 9A). […]

SNU398 cells = conditions: after addition to cell culture plates
Text: Confocal microscopy was next used to study cellular uptake of TAT-WT by SNU398 cells in vitro.

Sequence: CCTAAGGTTAAGTCGCCCTCG [scramble shRNA]
- metastatic tumor formation (AN3CA cells): Four out of five

Sequence: GCCTTGAAACAAGCCAAGCTA (expressed or natural sequence) [SALL4-sh1]
- down-regulation of SALL4A and SALL4B (SALL4A and SALL4B): could down-regulate SALL4A and SALL4B efficiently

- peptide uptake (cells with peptide) (KG1a): >15%
- peptide uptake (cells with peptide) (AML3): ~10%
- peptide uptake (cells with peptide) (MCF7): 70% (Ch)
- peptide uptake (cells with peptide) (CD34+): 50% (Ch)
- peptide uptake (cells with peptide) (HL60): ~50%
- peptide uptake (cells with peptide) (HuH-7): 60% (ch)
- peptide uptake (cells with peptide) (SNU387): 60% (Ch)
- peptide uptake (cells with peptide) (AML): 50% (Ch)
- peptide uptake (cells with peptide) (SNU-398): 60% (Ch)
Sequence: MSRRAQAKPQHI [Mut peptide, MSRRAQAKPQHI, reference compound]

Sequence: YGRKKRRQRRRMSRRKQAKPHI [TAT-WT, NH2-YGRKKRRQRRR-MSRRKQAKPHI-COOH]
- time to localization within the nucleus (SNU398 cells): ≤ 15 min
